From ChEMBL document CHEMBL1275577, “Study of the in vitro activities of rifaximin and comparator agents against 536 anaerobic intestinal bacteria from the perspective of potential utility in pathology involving bowel flora” (Antimicrob Agents Chemother, 2009)
≈ marks a conversion by molar mass, not a printed value.

Experiments:
[1] = test system: Schaalia odontolytica; assay: Antimicrobial activity against Actinomyces odontolyticus by Wadsworth agar dilution method; assay type: functional
[2] = test system: Collinsella aerofaciens; assay: Antimicrobial activity against Colinsella aerofaciens by Wadsworth agar dilution method; assay type: functional
[3] = test system: Fusobacterium necrophorum; assay: Antimicrobial activity against Fusobacterium necrophorum by Wadsworth agar dilution method; assay type: functional
[4] = test system: Porphyromonas asaccharolytica; assay: Antimicrobial activity against Porphyromonas asaccharolyticus by Wadsworth agar dilution method; assay type: functional
[5] = test system: Fusobacterium varium; assay: Antimicrobial activity against Fusobacterium varium by Wadsworth agar dilution method; assay type: functional
[6] = test system: Clostridium lactatifermentans; assay: Antimicrobial activity against Clostridium lactatifermentans by Wadsworth agar dilution method; assay type: functional; conditions: Anaerotignum lactatifermentans
[7] = test system: Lactobacillus acidophilus; assay: Antimicrobial activity against Lactobacillus acidophilus by Wadsworth agar dilution method; assay type: functional
[8] = test system: Tissierella praeacuta; assay: Antimicrobial activity against Clostridium hastiforme by Wadsworth agar dilution method; assay type: functional
[9] = test system: Bacteroides fragilis; assay: Antimicrobial activity against Bacteroides fragilis by Wadsworth agar dilution method; assay type: functional
[10] = test system: Peptoniphilus harei; assay: Antimicrobial activity against Peptoniphilus harei by Wadsworth agar dilution method; assay type: functional
[11] = test system: Eubacterium saburreum; assay: Antimicrobial activity against Eubacterium saburreum by Wadsworth agar dilution method; assay type: functional; conditions: Lachnoanaerobaculum saburreum
[12] = test system: Bifidobacterium pseudolongum; assay: Antimicrobial activity against Bifidobacterium pseudolongum by Wadsworth agar dilution method; assay type: functional
[13] = test system: Clostridium septicum; assay: Antimicrobial activity against Clostridium septicum by Wadsworth agar dilution method; assay type: functional
[14] = test system: Prevotella intermedia; assay: Antimicrobial activity against Prevotella intermedia by Wadsworth agar dilution method; assay type: functional
[15] = test system: Desulfovibrio desulfuricans; assay: Antimicrobial activity against Desulfovibrio desulfuricans by Wadsworth agar dilution method; assay type: functional
[16] = test system: Bacteroides ovatus; assay: Antimicrobial activity against Bacteroides ovatus by Wadsworth agar dilution method; assay type: functional
[17] = test system: Bacteroides thetaiotaomicron; assay: Antimicrobial activity against Bacteroides thetaiotaomicron by Wadsworth agar dilution method; assay type: functional
[18] = test system: Bacteroides stercoris; assay: Antimicrobial activity against Bacteroides stercoris by Wadsworth agar dilution method; assay type: functional
[19] = Antimicrobial activity against Bifidobacterium infantis by Wadsworth agar dilution method; assay type: functional, Bifidobacterium longum subsp. infantis; conditions: Bifidobacterium longum
[20] = test system: Bacteroides uniformis; assay: Antimicrobial activity against Bacteroides uniformis by Wadsworth agar dilution method; assay type: functional
[21] = test system: Parabacteroides merdae; assay: Antimicrobial activity against Parabacteroides merdae by Wadsworth agar dilution method; assay type: functional
[22] = test system: Blautia producta; assay: Antimicrobial activity against Ruminococcus productus by Wadsworth agar dilution method; assay type: functional
[23] = test system: Paraclostridium bifermentans; assay: Antimicrobial activity against Clostridium bifermentans by Wadsworth agar dilution method; assay type: functional
[24] = test system: Clostridium symbiosum; assay: Antimicrobial activity against Clostridium symbiosum by Wadsworth agar dilution method; assay type: functional
[25] = test system: Bifidobacterium bifidum; assay: Antimicrobial activity against Bifidobacterium bifidum by Wadsworth agar dilution method; assay type: functional
[26] = test system: Clostridium disporicum; assay: Antimicrobial activity against Clostridium disporicum by Wadsworth agar dilution method; assay type: functional
[27] = test system: Atopobium minutum; assay: Antimicrobial activity against Atopobium minutum by Wadsworth agar dilution method; assay type: functional
[28] = test system: Desulfovibrio piger; assay: Antimicrobial activity against Desulfovibrio piger by Wadsworth agar dilution method; assay type: functional
[29] = test system: Pseudoramibacter alactolyticus; assay: Antimicrobial activity against Eubacterium alactolyticum by Wadsworth agar dilution method; assay type: functional
[30] = test system: Clostridium acetobutylicum; assay: Antimicrobial activity against Clostridium acetobutylicum by Wadsworth agar dilution method; assay type: functional
[31] = test system: Parabacteroides goldsteinii; assay: Antimicrobial activity against Parabacteroides goldsteinii by Wadsworth agar dilution method; assay type: functional
[32] = test system: Ruminococcus torques; assay: Antimicrobial activity against Ruminococcus torques by Wadsworth agar dilution method; assay type: functional; conditions: Mediterraneibacter torques
[33] = test system: Lacticaseibacillus rhamnosus; assay: Antimicrobial activity against Lactobacillus rhamnosus by Wadsworth agar dilution method; assay type: functional
[34] = test system: Porphyromonas somerae; assay: Antimicrobial activity against Porphyromonas somerae by Wadsworth agar dilution method; assay type: functional
[35] = test system: Bifidobacterium longum; assay: Antimicrobial activity against Bifidobacterium longum by Wadsworth agar dilution method; assay type: functional
[36] = test system: Clostridium paraputrificum; assay: Antimicrobial activity against Clostridium paraputrificum by Wadsworth agar dilution method; assay type: functional
[37] = test system: Prevotella melaninogenica; assay: Antimicrobial activity against Prevotella melaninogenica by Wadsworth agar dilution method; assay type: functional
[38] = test system: Clostridium butyricum; assay: Antimicrobial activity against Clostridium butyricum by Wadsworth agar dilution method; assay type: functional
[39] = test system: Fusobacterium sp.; assay: Antimicrobial activity against Fusobacterium sp. by Wadsworth agar dilution method; assay type: functional
[40] = test system: Lactiplantibacillus plantarum; assay: Antimicrobial activity against Lactobacillus plantarum by Wadsworth agar dilution method; assay type: functional
[41] = test system: Clostridium tertium; assay: Antimicrobial activity against Clostridium tertium by Wadsworth agar dilution method; assay type: functional
[42] = test system: Prevotella corporis; assay: Antimicrobial activity against Prevotella corporis by Wadsworth agar dilution method; assay type: functional
[43] = test system: Eubacterium biforme; assay: Antimicrobial activity against Eubacterium biforme by Wadsworth agar dilution method; assay type: functional; conditions: Holdemanella biformis
[44] = test system: Clostridium nexile; assay: Antimicrobial activity against Clostridium nexile by Wadsworth agar dilution method; assay type: functional; conditions: Faecalimonas nexilis
[45] = test system: Eubacterium rectale; assay: Antimicrobial activity against Eubacterium rectale by Wadsworth agar dilution method; assay type: functional; conditions: Agathobacter rectalis
[46] = test system: Clostridium sp.; assay: Antimicrobial activity against Clostridium sp. by Wadsworth agar dilution method; assay type: functional
[47] = test system: Clostridium perfringens; assay: Antimicrobial activity against Clostridium perfringens by Wadsworth agar dilution method; assay type: functional
[48] = test system: Lactobacillus jensenii; assay: Antimicrobial activity against Lactobacillus jensenii by Wadsworth agar dilution method; assay type: functional

## CN[C@H](CC(C)C)C(=O)N[C@H]1C(=O)N[C@@H](CC(N)=O)C(=O)N[C@H]2C(=O)N[C@H]3C(=O)N[C@H](C(=O)N[C@H](C(=O)O)c4cc(O)cc(O)c4-c4cc3ccc4O)[C@H](O)c3ccc(c(Cl)c3)Oc3cc2cc(c3O[C@@H]2O[C@H](CO)[C@@H](O)[C@H](O)[C@H]2O[C@H]2C[C@](C)(N)[C@H](O)[C@H](C)O2)Oc2ccc(cc2Cl)[C@H]1O [VANCOMYCIN]
[1]
  MIC50: 1 µg/mL (≈ 0.69 µM)
  MIC90: 64 µg/mL (≈ 44.2 µM)
[2]
  MIC50: 1 µg/mL (≈ 0.69 µM)
  MIC90: 64 µg/mL (≈ 44.2 µM)
[3]
  MIC50: 256 µg/mL (≈ 177 µM)
  MIC90: > 1020 µg/mL
[4]
  MIC50: 4 µg/mL (≈ 2.76 µM)
  MIC90: 8 µg/mL (≈ 5.52 µM)
[5]
  MIC50: 256 µg/mL (≈ 177 µM)
  MIC90: > 1020 µg/mL
[6]
  MIC50: 1 µg/mL (≈ 0.69 µM)
  MIC90: 4 µg/mL (≈ 2.76 µM)
[7]
  MIC50: 1 µg/mL (≈ 0.69 µM)
  MIC90: 64 µg/mL (≈ 44.2 µM)
[8]
  MIC50: 1 µg/mL (≈ 0.69 µM)
  MIC90: 4 µg/mL (≈ 2.76 µM)
[9]
  MIC50: 64 µg/mL (≈ 44.2 µM)
  MIC90: 128 µg/mL (≈ 88.3 µM)
[10]
  MIC50: 0.5 µg/mL (≈ 0.345 µM)
  MIC90: 1 µg/mL (≈ 0.69 µM)
[11]
  MIC50: 1 µg/mL (≈ 0.69 µM)
  MIC90: 64 µg/mL (≈ 44.2 µM)
[12]
  MIC50: 1 µg/mL (≈ 0.69 µM)
  MIC90: 64 µg/mL (≈ 44.2 µM)
[13]
  MIC50: 1 µg/mL (≈ 0.69 µM)
  MIC90: 4 µg/mL (≈ 2.76 µM)
[14]
  MIC50: 128 µg/mL (≈ 88.3 µM)
  MIC90: 256 µg/mL (≈ 177 µM)
[15]
  MIC50: > 1020 µg/mL
  MIC90: > 1020 µg/mL
[16]
  MIC50: 128 µg/mL (≈ 88.3 µM)
  MIC90: 128 µg/mL (≈ 88.3 µM)
[17]
  MIC50: 128 µg/mL (≈ 88.3 µM)
  MIC90: 256 µg/mL (≈ 177 µM)
[18]
  MIC: 64 µg/mL (≈ 44.2 µM)
  MIC50: 64 µg/mL (≈ 44.2 µM)
  MIC90: 128 µg/mL (≈ 88.3 µM)
[19]
  MIC50: 1 µg/mL (≈ 0.69 µM)
  MIC90: 64 µg/mL (≈ 44.2 µM)
[20]
  MIC: 64 µg/mL (≈ 44.2 µM)
  MIC50: 64 µg/mL (≈ 44.2 µM)
  MIC90: 128 µg/mL (≈ 88.3 µM)
[21]
  MIC50: 128 µg/mL (≈ 88.3 µM)
  MIC90: 128 µg/mL (≈ 88.3 µM)
[22]
  MIC50: 0.5 µg/mL (≈ 0.345 µM)
  MIC90: 1 µg/mL (≈ 0.69 µM)
[23]
  MIC50: 1 µg/mL (≈ 0.69 µM)
  MIC90: 4 µg/mL (≈ 2.76 µM)
[24]
  MIC50: 1 µg/mL (≈ 0.69 µM)
  MIC90: 4 µg/mL (≈ 2.76 µM)
[25]
  MIC50: 1 µg/mL (≈ 0.69 µM)
  MIC90: 64 µg/mL (≈ 44.2 µM)
[26]
  MIC50: 1 µg/mL (≈ 0.69 µM)
  MIC90: 4 µg/mL (≈ 2.76 µM)
[27]
  MIC50: 1 µg/mL (≈ 0.69 µM)
  MIC90: 64 µg/mL (≈ 44.2 µM)
[28]
  MIC50: > 1020 µg/mL
  MIC90: > 1020 µg/mL
[29]
  MIC50: 1 µg/mL (≈ 0.69 µM)
  MIC90: 64 µg/mL (≈ 44.2 µM)
[30]
  MIC50: 1 µg/mL (≈ 0.69 µM)
  MIC90: 4 µg/mL (≈ 2.76 µM)
[31]
  MIC50: 128 µg/mL (≈ 88.3 µM)
  MIC90: 128 µg/mL (≈ 88.3 µM)
[32]
  MIC50: 0.5 µg/mL (≈ 0.345 µM)
  MIC90: 1 µg/mL (≈ 0.69 µM)
[33]
  MIC50: 1 µg/mL (≈ 0.69 µM)
  MIC90: 64 µg/mL (≈ 44.2 µM)
[34]
  MIC50: 4 µg/mL (≈ 2.76 µM)
  MIC90: 8 µg/mL (≈ 5.52 µM)
[35]
  MIC50: 1 µg/mL (≈ 0.69 µM)
  MIC90: 64 µg/mL (≈ 44.2 µM)
[36]
  MIC50: 1 µg/mL (≈ 0.69 µM)
  MIC90: 4 µg/mL (≈ 2.76 µM)
[37]
  MIC50: 128 µg/mL (≈ 88.3 µM)
  MIC90: 256 µg/mL (≈ 177 µM)
[38]
  MIC50: 1 µg/mL (≈ 0.69 µM)
  MIC90: 4 µg/mL (≈ 2.76 µM)
[39]
  MIC50: 256 µg/mL (≈ 177 µM)
  MIC90: > 1020 µg/mL
[40]
  MIC50: 1 µg/mL (≈ 0.69 µM)
  MIC90: 64 µg/mL (≈ 44.2 µM)
[41]
  MIC50: 1 µg/mL (≈ 0.69 µM)
  MIC90: 4 µg/mL (≈ 2.76 µM)
[42]
  MIC50: 128 µg/mL (≈ 88.3 µM)
  MIC90: 256 µg/mL (≈ 177 µM)
[43]
  MIC50: 1 µg/mL (≈ 0.69 µM)
  MIC90: 64 µg/mL (≈ 44.2 µM)
[44]
  MIC50: 1 µg/mL (≈ 0.69 µM)
  MIC90: 4 µg/mL (≈ 2.76 µM)
[45]
  MIC50: 1 µg/mL (≈ 0.69 µM)
  MIC90: 64 µg/mL (≈ 44.2 µM)
[46]
  MIC50: 1 µg/mL (≈ 0.69 µM)
  MIC90: 4 µg/mL (≈ 2.76 µM)
[47]
  MIC50: 1 µg/mL (≈ 0.69 µM)
  MIC90: 1 µg/mL (≈ 0.69 µM)
[48]
  MIC50: 1 µg/mL (≈ 0.69 µM)
  MIC90: 64 µg/mL (≈ 44.2 µM)
